Reference: ChEMBL document CHEMBL6103581, “Identification of Thieno[3,2-d]pyrimidine derivatives as potent and selective Janus Kinase 1 inhibitors” (Eur J Med Chem, 2025)

How the values were obtained:
[1] = tested on: NCI-H2087; test: Antiproliferative activity against human NCI-H2087 cells assessed as cell growth inhibition incubated for 72 hrs by Cell-TiterGlo assay; assay type: functional
[2] = tested on: NCI-H1975; test: Antiproliferative activity against human NCI-H1975 cells assessed as cell growth inhibition incubated for 72 hrs by Cell-TiterGlo assay; assay type: functional
[3] = tested on: BaF3; test: Antiproliferative activity against mouse parental BaF3 cells assessed as cell growth inhibition incubated for 72 hrs by Cell-TiterGlo assay; assay type: functional
[4] = Antiproliferative activity against mouse Ba/F3-TEL-JAK1 cells assessed as cell growth inhibition incubated for 72 hrs by Cell-TiterGlo assay; assay type: functional
[5] = target: T1, Tyrosine-protein kinase JAK3 (Homo sapiens, UniProt P52333); test: Inhibition of N-terminal GST-tagged human recombinant JAK3 (781 to end residues) extracted from baculovirus infected in Sf9 cells using Poly(4:1 Glu, Tyr) as substrate preincubated for 15 min followed by substrate addition and measured after 1 hr by ADP-Glo kinase assay
T1 sequence (P52333 whole entry): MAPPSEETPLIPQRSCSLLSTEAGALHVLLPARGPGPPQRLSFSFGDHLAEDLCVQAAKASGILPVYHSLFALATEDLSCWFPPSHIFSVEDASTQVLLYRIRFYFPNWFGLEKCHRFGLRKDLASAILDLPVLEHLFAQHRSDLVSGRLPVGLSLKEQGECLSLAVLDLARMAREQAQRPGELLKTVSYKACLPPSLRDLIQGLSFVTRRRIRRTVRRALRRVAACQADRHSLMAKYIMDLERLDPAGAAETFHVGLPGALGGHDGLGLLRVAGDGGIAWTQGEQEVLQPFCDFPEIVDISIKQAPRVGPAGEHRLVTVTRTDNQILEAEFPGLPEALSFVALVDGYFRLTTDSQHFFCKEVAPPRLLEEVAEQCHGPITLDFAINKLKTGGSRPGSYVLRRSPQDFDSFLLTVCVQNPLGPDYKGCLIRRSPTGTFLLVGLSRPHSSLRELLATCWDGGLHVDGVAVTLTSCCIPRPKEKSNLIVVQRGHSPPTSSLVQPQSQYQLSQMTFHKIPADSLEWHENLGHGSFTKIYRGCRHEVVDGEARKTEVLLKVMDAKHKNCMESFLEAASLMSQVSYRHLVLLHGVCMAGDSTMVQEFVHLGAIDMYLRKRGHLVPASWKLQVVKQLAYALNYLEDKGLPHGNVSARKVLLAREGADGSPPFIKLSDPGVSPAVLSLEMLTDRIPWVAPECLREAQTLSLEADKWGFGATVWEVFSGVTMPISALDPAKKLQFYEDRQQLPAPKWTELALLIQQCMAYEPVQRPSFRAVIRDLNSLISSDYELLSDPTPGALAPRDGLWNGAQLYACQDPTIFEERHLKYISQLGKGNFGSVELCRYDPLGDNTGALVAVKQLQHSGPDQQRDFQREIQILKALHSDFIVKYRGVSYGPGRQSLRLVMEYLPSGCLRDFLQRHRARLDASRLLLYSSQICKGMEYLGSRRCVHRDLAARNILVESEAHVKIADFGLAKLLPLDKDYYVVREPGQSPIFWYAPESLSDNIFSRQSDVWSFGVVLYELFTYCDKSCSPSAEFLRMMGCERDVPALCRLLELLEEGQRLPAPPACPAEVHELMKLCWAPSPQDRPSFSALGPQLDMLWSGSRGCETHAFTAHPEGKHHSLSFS

[6] = target: Tyrosine-protein kinase JAK2 (Homo sapiens, UniProt O60674); test: Inhibition of N-terminal GST-tagged human recombinant JAK2 (804 to end residues) extracted from baculovirus infected in Sf9 cells using IGF1Rtide as substrate preincubated for 15 min followed by substrate addition and measured after 1 hr by ADP-Glo kinase assay
Chain of Tyrosine-protein kinase JAK2 (O60674 whole entry): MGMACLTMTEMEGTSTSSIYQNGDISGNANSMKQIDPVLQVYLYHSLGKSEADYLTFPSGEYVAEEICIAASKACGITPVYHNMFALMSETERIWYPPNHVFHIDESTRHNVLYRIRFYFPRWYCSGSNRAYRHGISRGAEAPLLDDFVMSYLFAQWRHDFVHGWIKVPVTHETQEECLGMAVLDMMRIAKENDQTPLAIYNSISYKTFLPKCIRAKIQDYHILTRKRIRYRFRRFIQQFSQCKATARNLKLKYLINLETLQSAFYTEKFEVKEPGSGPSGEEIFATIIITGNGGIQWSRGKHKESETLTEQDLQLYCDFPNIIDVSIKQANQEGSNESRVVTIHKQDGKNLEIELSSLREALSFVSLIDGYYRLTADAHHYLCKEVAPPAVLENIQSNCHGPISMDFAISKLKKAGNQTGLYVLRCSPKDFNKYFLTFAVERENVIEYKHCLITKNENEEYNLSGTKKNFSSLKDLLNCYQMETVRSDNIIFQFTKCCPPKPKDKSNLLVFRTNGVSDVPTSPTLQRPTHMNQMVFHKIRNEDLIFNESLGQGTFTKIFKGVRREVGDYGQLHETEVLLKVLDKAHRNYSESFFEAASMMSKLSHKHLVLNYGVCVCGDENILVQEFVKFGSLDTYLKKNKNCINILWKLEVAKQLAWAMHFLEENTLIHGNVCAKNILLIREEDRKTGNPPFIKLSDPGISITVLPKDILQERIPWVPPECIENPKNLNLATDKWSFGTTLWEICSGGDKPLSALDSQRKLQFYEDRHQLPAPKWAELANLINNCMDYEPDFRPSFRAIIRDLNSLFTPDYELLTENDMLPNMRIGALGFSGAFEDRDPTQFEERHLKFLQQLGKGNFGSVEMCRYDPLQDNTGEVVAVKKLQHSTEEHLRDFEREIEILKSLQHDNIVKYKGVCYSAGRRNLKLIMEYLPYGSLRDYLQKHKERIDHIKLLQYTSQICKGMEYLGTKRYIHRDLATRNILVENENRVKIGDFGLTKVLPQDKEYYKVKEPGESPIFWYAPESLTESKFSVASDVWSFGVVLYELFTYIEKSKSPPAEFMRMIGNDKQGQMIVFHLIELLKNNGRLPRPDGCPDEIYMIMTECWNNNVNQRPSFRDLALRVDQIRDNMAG

| Structure (SMILES) | GI50 [1] [µM] | GI50 [2] [µM] | GI50 [3] [µM] | GI50 [4] [µM] | IC50 [5] [µM] | IC50 [6] [µM] |
| --- | --- | --- | --- | --- | --- | --- |
| COc1nn(C(C)=O)cc1Nc1ncc2scc(-c3cccc(NC(=O)[C@@H](C)N4CCN(C)CC4)c3)c2n1 | 3.28 | 4.61 | 2.27 | 2.42 | – | – |
| COc1nn(C)cc1Nc1ncc2scc(-c3cccc(N)c3)c2n1 | 4.6 | 4.49 | 1.01 | 0.313 | 0.068 | 0.154 |
| COc1nn(C)cc1Nc1ncc2scc(-c3cccc(NS(C)(=O)=O)c3)c2n1 | 8.22 | 4.53 | 0.781 | 0.659 | – | – |
| COc1nn(C)cc1Nc1ncc2scc(-c3cccc(NC(=O)[C@@H](C)N4CCN(C(C)C)CC4)c3)c2n1 | 3.61 | 15.4 | 1.05 | 0.519 | – | – |
| COc1nn(C)cc1Nc1ncc2scc(-c3cccc(NC(=O)[C@H]4CCCN4S(C)(=O)=O)c3)c2n1 | 9.5 | 8.98 | 6.16 | 3.1 | – | – |
| Cc1ccc(Nc2ncc3scc(-c4cccc(NC(=O)[C@@H](C)N5CCN(C)CC5)c4)c3n2)c(C)n1 | 6.49 | 27.2 | 7.83 | 5.45 | – | – |
| COc1nn(CCO)cc1Nc1ncc2scc(-c3cccc(NC(=O)[C@@H](C)N4CCN(C)CC4)c3)c2n1 | 5.57 | 10.4 | 1.04 | 0.809 | – | – |
| Cc1cc(Nc2ncc3scc(-c4cccc(NC(=O)[C@@H](C)N5CCN(C)CC5)c4)c3n2)n(C)n1 | 7.05 | 7.34 | 4.26 | 1.6 | – | – |
| COc1nn(C)cc1Nc1ncc2scc(-c3cccc(NC(=O)[C@@H](C)N4CCN(C5CCOCC5)CC4)c3)c2n1 | 8.98 | 23.4 | 1.37 | 1.22 | – | – |
| COc1n[nH]cc1Nc1ncc2scc(-c3cccc(NC(=O)[C@@H](C)N4CCN(C)CC4)c3)c2n1 | 8.62 | 16.5 | 1.24 | 0.62 | – | – |
| Cc1ccc(Nc2ncc3scc(-c4cccc(NC(=O)[C@@H](C)N5CCN(C)CC5)c4)c3n2)cn1 | 2.67 | 9.18 | 2.52 | 0.994 | – | – |
| C=CC(=O)N1CCN([C@H](C)C(=O)Nc2cccc(-c3csc4cnc(Nc5cn(C)nc5OC)nc34)c2)CC1 | 10.5 | 13.5 | 1.62 | 1.7 | – | – |
| COc1nn(C)cc1Nc1ncc2scc(-c3cccc(NC(C)=O)c3)c2n1 | > 44 | > 50 | 4.16 | 0.331 | 0.05 | 0.295 |
| C[C@H](C(=O)Nc1cccc(-c2csc3cnc(Nc4cccc(S(C)(=O)=O)c4F)nc23)c1)N1CCN(C)CC1 | 6.28 | 12.6 | 0.677 | 0.641 | – | – |
| COc1nn(C)cc1Nc1ncc2scc(-c3cccc(NC(=O)[C@@H](C)N4CCNCC4)c3)c2n1 | 1.66 | 4.26 | 0.507 | 0.188 | – | – |
| COc1ncccc1Nc1ncc2scc(-c3cccc(NC(=O)[C@@H](C)N4CCN(C)CC4)c3)c2n1 | 3.27 | 10.5 | 2.59 | 1.77 | – | – |
| C[C@H](C(=O)Nc1cccc(-c2csc3cnc(Nc4cccnc4O)nc23)c1)N1CCN(C)CC1 | 13.5 | 18.5 | 6.16 | 7.31 | – | – |

| Structure (SMILES) | GI50 [1] [µM] | GI50 [2] [µM] | GI50 [3] [µM] | GI50 [4] [µM] | IC50 [5] [µM] | IC50 [6] [µM] |
| --- | --- | --- | --- | --- | --- | --- |
| C=CC(=O)N1C[C@H](Nc2ncnc3[nH]ccc23)CC[C@@H]1C [RITLECITINIB] | > 50 | > 50 | > 50 | > 50 | – | – |
| COc1nn(C)cc1Nc1ncc2scc(-c3cccc(NC(=O)[C@@H](C)N4CCN(C(=O)C(F)(F)F)CC4)c3)c2n1 | 3.48 | 7.36 | 1.04 | 0.351 | – | – |
| C[C@H](C(=O)Nc1cccc(-c2csc3cnc(Nc4nnn(C)n4)nc23)c1)N1CCN(C)CC1 | 6.47 | 27.9 | 6.09 | 7.17 | – | – |
| C[C@H](C(=O)Nc1cccc(-c2csc3cnc(Nc4cn(C)nc4C(F)(F)F)nc23)c1)N1CCN(C)CC1 | 3.03 | 7.4 | 2.77 | 1.93 | – | – |
| COc1nn(C)cc1Nc1ncc2scc(-c3cccc(NC(=O)[C@H]4CCCN4C(C)=O)c3)c2n1 | 13.1 | 10.2 | 4.06 | 0.897 | 0.248 | 3.02 |
| COc1nn(C)cc1Nc1ncc2scc(-c3cccc(NC(=O)[C@@H]4CCCN4)c3)c2n1 | 3.74 | 8.86 | 3.33 | 1.22 | – | – |
| COc1nn(C)cc1Nc1ncc2scc(-c3cccc(NC(=O)[C@@H](C)N4CCN(S(C)(=O)=O)CC4)c3)c2n1 | 22.2 | 20.2 | 3.77 | 2.45 | – | – |
| COc1nn(C)cc1Nc1ncc2scc(-c3cccc(NC(=O)[C@H]4CCCN4)c3)c2n1 | 1.51 | 5.26 | 3.31 | 0.744 | 0.069 | 1.6 |
| Cc1ncccc1Nc1ncc2scc(-c3cccc(NC(=O)[C@@H](C)N4CCN(C)CC4)c3)c2n1 | 6.42 | 23.1 | 2.74 | 1.97 | – | – |
| COc1nn(C)cc1Nc1ncc2scc(-c3cccc(NC(=O)[C@@H](C)N4CCN(C(C)=O)CC4)c3)c2n1 | 21.1 | 23.6 | 1.69 | 1.89 | – | – |
| COc1nn(C)cc1Nc1ncc2scc(-c3cccc(NC(=O)[C@H]4CCCN4C4CCOCC4)c3)c2n1 | 9.31 | 21 | 6.37 | 2.79 | – | – |
| Cc1ccnc(C)c1Nc1ncc2scc(-c3cccc(NC(=O)[C@@H](C)N4CCN(C)CC4)c3)c2n1 | 7.82 | 28.9 | 17.3 | 16.2 | – | – |
| COc1nn(C)cc1Nc1ncc2scc(-c3cccc(NC(=O)[C@H]4CCCN4C4CCN(C)CC4)c3)c2n1 | 4.26 | 11 | 2.25 | 1.61 | – | – |
| C[C@@H]1CCN(C(=O)CC#N)C[C@@H]1N(C)c1ncnc2[nH]ccc12 [TOFACITINIB] | > 50 | > 50 | 1.81 | 0.495 | – | – |
| COc1nn(C)cc1Nc1ncc2scc(-c3cccc(NC(=O)[C@@H](C)N4CCN(C(=O)CC#N)CC4)c3)c2n1 | 23.3 | 40.3 | 3.98 | 2.44 | – | – |
| COc1nn(C)cc1Nc1ncc2scc(-c3cccc(NC(=O)[C@@H](C)N4CCN(C5COC5)CC4)c3)c2n1 | 16.4 | > 50 | 6.07 | 6.78 | – | – |
